Results reported in article PMC11219871, “Epigenetic-based differentiation therapy for Acute Myeloid Leukemia” (Nature Communications, 2024).
Where “and” joins values, the source holds several entries; their conditions need not be identical. Equal entries are not always repeated. Where two headings read alike, the source gives them in different places.

What was measured:
OCI-AML2 = test: Differentiation assay, CD11b / annexin-V flow cytometry; format: cell-based; settings: OCI-AML-2 cell line; replicates 1-3 (Figure 2A)
Protocol: (§1) Next, the cells were washed twice with phosphate-buffered saline (PBS) and resuspended in 1X Binding Buffer at a concentration of 1 × 10^6 cells/mL. An 8-µL aliquot of APC-CD11b (BD Pharmingen, Franklin Lakes, NJ, USA) and 1 µL of FITC annexin-V (AV) (BD Pharmingen, Franklin Lakes, NJ, USA) antibodies were added and incubated for 15 min at room temperature in the dark. Finally, after the addition of 400 µL of 1X Binding Buffer to each tube, samples were collected on a BD FACSCanto flow cytometer (Becton Dickinson, San Jose, CA, USA) and analyzed using FlowJo software.

TF-1 = test: as above; format: cell-based; settings: TF-1 cell line; replicates 1-3 (Figure 2A);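 further: daily treatment at a GI50-based fraction of each compound's GI50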
Protocol: as §1

THP-1 = test: as above; format: cell-based; settings: THP-1 cell line; replicates 1-3 (Figure 2A)
Protocol: as §1

KASUMI-1 = test: as above; format: cell-based; settings: KASUMI-1 cell line; replicates 1-3 (Figure 2A);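 further: daily treatment at a GI50-based fraction of each compound's GI50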
Protocol: as §1

OCI-AML3 = test: as above; format: cell-based; settings: OCI-AML-3 cell line; replicates 1-3 (Figure 2A)
Protocol: as §1

HEL = test: as above; format: cell-based; settings: HEL cell line; replicates 1-3 (Figure 2A)
Protocol: as §1

UT-7 = test: as above; format: cell-based; settings: UT7 cell line; replicates 1-3 (Figure 2A)
Protocol: as §1

MONO-MAC-6 = test: as above; format: cell-based; settings: MONOMAC-6 cell line; replicates 1-3 (Figure 2A)
Protocol: as §1

ML-2 = test: Acetylome analysis (Acetyl-K enrichment, LC-MS/MS); format: cell-based, human; settings: for Acetyl-K sites regulated, Number, Histone proteins / Acetyl-K sites regulated, Number, Non-histone proteins / Acetyl-K sites regulated, Percentages, Histone proteins / Acetyl-K sites regulated, Percentages, Non-histone proteins: Fig 4G; for Acetyl-K sites: Down-regulated, % / Acetyl-K sites: Down-regulated, Number / Acetyl-K sites: Non-regulated, % / Acetyl-K sites: Non-regulated, Number / Acetyl-K sites: Quantified (total number) / Acetyl-K sites: Regulated, % / Acetyl-K sites: Regulated, Number / Acetyl-K sites: Up-regulated, % / Acetyl-K sites: Up-regulated, Number: ML-2 (Fig 4C); for Acetyl-K sites, Down-regulated / Acetyl-K sites, Up-regulated: Fig. 4C; for regulated Acetyl-K sites in Histone proteins / regulated Acetyl-K sites in Non-histone proteins: Fig. 4G; for percentage of Acetyl-K sites regulated: of 3618 quantified
Protocol: Cellular pellets were lysed for 15 min at 95 °C in 4% SDS, 100 mM Hepes/NaOH pH 8.0, containing 5 mM sodium butyrate and 5 mM Nicotinamide. After cooling down, lysates were incubated at 25 °C with 10 units of DNAse (Benzonase, Merk) and sonicated for 15 min in a Bioruptor for DNA shearing. Protein concentration was determined using microBCA, using BSA as standard. Samples were digested using on-bead protein aggregation capture (PAC) with ReSyn Biosciences MagReSyn® Hydoxyl microparticles (ratio Protein/Beads 1:5) in an automated King Fisher instrument (Thermo). Proteins were digested for 16 h at 37 C with LysC/Trypsin mix at a protein: enzyme ratio of 1:100 in 50 mM TEAB pH 8.0 (Trypsin Sequence grade, Sigma; LysC, Wako). The resulting peptides were speed-vac dried and dissolved in 100 µL of 200 mM HEPES pH 8.5.
Peptides (500 µg) were labeled with Thermo Scientific TMTpro 18plex™ Isobaric reagents for 1 h at 25 C. Reaction was quenched by adding 5% hydroxylamine for 15 min. Samples were pooled at a 1:1 ratio based on the total peptide amount, determined by comparing overall signal intensities on a regular LC-MS/MS run. The final mixture was desalted using a 500 mg Sep-Pak C18t cartridge (Waters) and dried prior to high pH reverse phase HPLC pre-fractionation.
Labeled peptides were fractionated offline through a high pH reverse phase chromatography using an Ultimate 3000 HPLC system equipped with a sample collector. Briefly, peptides were dissolved in 1200 µL of Buffer A (10 mM NH4OH) and loaded onto a XBridge BEH130 C18 column (3.5 µm, 250 mm length and 3.5 mm ID, Waters). Buffer B was composed of 10 mM NH4OH in 90% CH3CN. The following gradient was used at a flow rate of 500 µL/min: 0-50 min 0-25% B, 50-56 min 25-60% B, 56-57 min 60-90% B. One-minute fractions (500 µL) from […] were collected and neutralized with 10% formic acid. Based on the UV absorbance at 280 nm, 95% of the volume of 40 fractions was pooled in 5 fractions for Acetyl-Lysine enrichment. The 5% of these fractions was kept for proteome analysis. Pooled fractions were snap-frozen and lyophilized.
Lyophilized peptides (1.5 mg) from each pool were immuno-affinity purified with the PTMScan HS Acetyl-Lysine Motif (Ac−K) kit (Cell Signaling Technology). For each pool, three consecutive immuno-purifications (IPs) were performed using the manufacturer’s protocol in an automated King Fisher instrument (Thermo). Elution of purified peptides was performed in two consecutive steps of 50 μl of 0.15% TFA. Samples were desalted with C18 stage tips and eluates were vacuum dried and resuspended in 0.1% formic acid for subsequent analysis by LC−MS/MS.
LC-MS/MS was done by coupling an UltiMate 3000 RSLCnano LC system to an Orbitrap Exploris 480 mass spectrometer (Thermo Fisher Scientific). Samples were loaded into a trap column (Acclaim™ PepMap™ 100 C18 LC Columns 5 µm, 20 mm length) for 3 min at a flow rate of 10 µL/min in 0.1% FA. Peptides were then transferred to an EASY-Spray PepMap RSLC C18 column (Thermo) (2 µm, 75 µm x 50 cm) operated at 45 °C and separated using a 90 min effective gradient (buffer A: 0.1% FA; buffer B: 100% ACN, 0.1% FA) at a flow rate of 250 nL/min. The gradient used was, from 4% to 6% of buffer B the first 2 min, from 6% to 33% B the next 58 min, plus 10 additional minutes at 98% B.
The mass spectrometer was operated in a data-dependent mode, with an automatic switch between MS and MS/MS scans using a top 15 method. (Intensity threshold ≥ 1e4, dynamic exclusion of 20 sec and excluding charges unassigned, +1 and ≥ +7). MS spectra were acquired from 350 to 1500 m/z with a resolution of 60,000 FMHW (200 m/z). Ion peptides were isolated using a 0.7 Th window and fragmented using higher-energy collisional dissociation (HCD) with a normalized collision energy NCE of 36. MS/MS spectra were acquired with a fixed first mass of 120 m/z and a resolution of 45,000 FMHW (200 m/z). […]

[1] = ML-2, first (superseded) acetylome experiment, peer review file
[2] = distribution of acetylated sites in the acetylated proteins (Fig 4D)

Compound | Acetyl-K sites regulated, Number, Histone proteins (ML-2) | Acetyl-K sites regulated, Number, Non-histone proteins (ML-2) | Acetyl-K sites regulated, Percentages, Histone proteins (ML-2) | Acetyl-K sites regulated, Percentages, Non-histone proteins (ML-2) | Acetyl-K sites: Down-regulated, % (ML-2) [%] | Acetyl-K sites: Down-regulated, Number (ML-2) | Acetyl-K sites: Non-regulated, % (ML-2) [%] | Acetyl-K sites: Non-regulated, Number (ML-2) | Acetyl-K sites: Quantified (total number) (ML-2) | Acetyl-K sites: Regulated, % (ML-2) [%] | Acetyl-K sites: Regulated, Number (ML-2) | Acetyl-K sites: Up-regulated, Number (ML-2) | fraction of regulated acetylation sites upregulated (ML-2; ML-2, 25% GI50, 12 h) [%] | Acetyl-K sites, Down-regulated (ML-2; ML-2, 25% GI50, 12 h) | Acetyl-K sites, Up-regulated (ML-2; ML-2, 25% GI50, 12 h) | regulated Acetyl-K sites in Histone proteins (ML-2; ML-2, 25% GI50, 12 h) | regulated Acetyl-K sites in Non-histone proteins (ML-2; ML-2, 25% GI50, 12 h) | percentage of Acetyl-K sites regulated (ML-2; ML-2, 25% GI50, 12 h) [%] | acetyl K-sites regulated specifically by the compound (ML-2; [1]) | fraction of regulated acetylation sites upregulated (ML-2; [1]) [%] | also measured
CC1=C(/C=C/C(C)=C/C=C/C(C)=C/C(=O)O)C(C)(C)CCC1 [ATRA, all-trans retinoic acid, reference compound] | – | – | – | – | – | – | – | – | – | – | – | – | – | – | – | – | – | – | – | – | CD11b (%) (OCI-AML2): 15.2% and 20.2% and 14.1%; CD11b (%) (TF-1): 36.7% and 30.4% and 33.4%; CD11b (%) (THP-1): 48.6% and 40.2% and 38.7%; CD11b (%) (KASUMI-1): 1.2% and 9.5% and 4.6%; CD11b (%) (OCI-AML3): 19.3% and 12.4% and 11.8%; CD11b (%) (HEL): 1.5% and 0.9% and 3.54%; CD11b (%) (UT-7): 5.9% and 6.4% and 10.05%; CD11b (%) (MONO-MAC-6): 10.8% and 15.4% and 11.3%
COc1cc2nc(-c3ccc(C)o3)cc(NCC3CCN(c4ncc(C(=O)NO)cn4)CC3)c2cc1OC [CM-444, 2-[4-[[[6,7-dimethoxy-2-(5-methyl-2-furyl)-4-quinolyl]amino]methyl]-1-piperidyl]pyrimidine-5-carbohydroxamic acid] | 58 | 766 | 7 | 93 | 11.9 | 429 | 77.2 | 2794 | 3618 | 22.8 | 824 | 395 | 47.9 | 429 | 395 | 58 | 766 | 22.8 | 202 | 49.7 | CD11b (%) (OCI-AML2): 21.1% and 24.6% and 20.5%; CD11b (%) (TF-1): 85.3% and 79.1% and 71.7%; CD11b (%) (THP-1): 99.1% and 93.5% and 92.1%; CD11b (%) (KASUMI-1): 16.9% and 10.6% and 19.6%; CD11b (%) (OCI-AML3): 36.4% and 23.4% and 30.8%; CD11b (%) (HEL): 12.7% and 10.5% and 8.2%; CD11b (%) (UT-7): 16.8% and 20.4% and 21.0%; CD11b (%) (MONO-MAC-6): 69.4% and 75.8% and 60.6%; Number of proteins with >5 Acetyl-K sites per protein (ML-2): 14; Acetyl-K sites: Up-regulated, % (ML-2): 10.9%; Number of proteins with 1 Acetyl-K site per protein (ML-2; [2]): 421; Number of proteins with 2 Acetyl-K sites per protein (ML-2; [2]): 79; Number of proteins with 3 Acetyl-K sites per protein (ML-2; [2]): 29; Number of proteins with 4 Acetyl-K sites per protein (ML-2; [2]): 14
Cc1[nH]c2ccccc2c1CCNCc1ccc(/C=C/C(=O)NO)cc1 [Panobinostat, reference compound] | 52 | 587 | 8.1 | 91.9 | 8.9 | 322 | 82.3 | 2979 | 3618 | 17.7 | 639 | 317 | 49.6 | 322 | 317 | 52 | 587 | 17.7 | 232 | 53.2 | Number of proteins with >5 Acetyl-K sites per protein (ML-2): 11; Acetyl-K sites: Up-regulated, % (ML-2): 8.8%; Number of proteins with 1 Acetyl-K site per protein (ML-2; [2]): 354; Number of proteins with 2 Acetyl-K sites per protein (ML-2; [2]): 56; Number of proteins with 3 Acetyl-K sites per protein (ML-2; [2]): 25; Number of proteins with 4 Acetyl-K sites per protein (ML-2; [2]): 6
O=C(CCCCCCC(=O)Nc1ccccc1)NO [Vorinostat, reference compound] | 40 | 469 | 7.9 | 92.1 | 7.7 | 232 | 85.9 | 3109 | 3618 | 14.1 | 509 | 277 | 54.4 | 232 | 277 | 40 | 469 | 14.1 | 121 | 37.3 | Number of proteins with 1 Acetyl-K site per protein (ML-2; [2]): 298; Number of proteins with 2 Acetyl-K sites per protein (ML-2; [2]): 54; Number of proteins with 3 Acetyl-K sites per protein (ML-2; [2]): 16; Number of proteins with 4 Acetyl-K sites per protein (ML-2; [2]): 5; Number of proteins with >5 Acetyl-K sites per protein (ML-2; [2]): 6
